Read-outs that look alike come from different tables or passages of the source.
Key:
NAMPT = NAMPT (Homo sapiens (Human), UniProt P43490); experiment: Biochemical Inhibition Assay (NAMPT enzymatic reaction, NMN quantified by mass spectrometry); settings: recombinant His-tagged NAMPT, 33 nM; 1 μM NAM; read-out: Biochem IC50
Outline: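 His-tagged human NAMPT from E. coli was preincubated 15 min at RT with compound in Hepes pH 7.5/MgCl2 buffer. Reaction ran 30 min at RT with 1 μM NAM, 100 μM PRPP and 2.5 mM ATP, then was quenched with formic acid. NMN was measured by RapidFire MS, normalized to L-cystathionine, and IC50 derived from % inhibition.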

A2780 cells = experiment: In-Vitro Cell Proliferation Assay (SRB, 72 hours); assay type: cell-based; settings: A2780 cells, 72 hours, sulforhodamine B, read-out: A2780 IC50
Outline: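 Plated cells exposed to serially diluted compound (0.1% DMSO final) for 72 h at 37 °C, 5% CO2. Viability by SRB staining after TCA fixation, absorbance 570 nm, media-only background subtracted; % inhibition relative to DMSO-treated cells, interpolated between bracketing concentrations.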

Chain of NAMPT (P43490 whole entry): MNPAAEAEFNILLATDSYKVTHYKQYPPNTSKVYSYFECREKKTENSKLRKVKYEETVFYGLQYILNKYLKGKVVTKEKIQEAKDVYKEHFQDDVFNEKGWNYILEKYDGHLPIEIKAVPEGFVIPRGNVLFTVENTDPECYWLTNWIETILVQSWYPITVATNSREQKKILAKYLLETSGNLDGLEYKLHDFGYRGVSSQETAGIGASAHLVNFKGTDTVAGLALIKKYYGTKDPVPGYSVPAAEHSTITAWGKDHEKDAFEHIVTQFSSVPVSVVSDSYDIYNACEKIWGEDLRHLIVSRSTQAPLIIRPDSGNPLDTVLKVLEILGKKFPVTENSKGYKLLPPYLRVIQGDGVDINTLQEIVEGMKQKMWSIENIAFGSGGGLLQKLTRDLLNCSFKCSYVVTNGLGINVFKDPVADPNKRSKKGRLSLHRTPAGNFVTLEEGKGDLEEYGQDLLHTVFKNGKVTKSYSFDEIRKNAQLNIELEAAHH

Structure (SMILES) | IC50 (NAMPT) [nM] | IC50 (A2780 cells; Homo sapiens, A2780, 72 h) [nM] | IC50 (A2780 cells) [nM]
O=C(/C=C/c1cccnc1)Nc1ccc(S(=O)(=O)c2cncc(N3CCCC3)c2)cc1 [(2E)-3-(pyridin-3-yl)-N-{4-[5-(pyrrolidin-1-yl)pyridine-3-sulfonyl]phenyl}prop-2-enamide] | 1.4 | 51.1 | 
COc1ccc(S(=O)(=O)c2ccc(NC(=O)/C=C/c3cccnc3)cc2)cc1C [(2E)-N-{4-[(4-methoxy-3-methylbenzene)sulfonyl]phenyl}-3-(pyridin-3-yl)prop-2-enamide] | 17.1 | 116 | 
Cn1c(S(=O)(=O)c2ccc(NC(=O)/C=C/c3cccnc3)cc2)cc2ccccc21 [(2E)-N-[4-(1-methyl-1H-indole-2-sulfonyl)phenyl]-3-(pyridin-3-yl)prop-2-enamide] | 21.8 | 100 to 1000 | 
COc1ccc(C)cc1S(=O)(=O)c1ccc(NC(=O)/C=C/c2cccnc2)cc1 [(2E)-N-{4-[(2-methoxy-5-methylbenzene)sulfonyl]phenyl}-3-(pyridin-3-yl)prop-2-enamide] | 1.8 | 7.3 | 
O=C(/C=C/c1cccnc1)Nc1ccc(S(=O)(=O)c2cccc3cc[nH]c23)cc1 [(2E)-N-[4-(1H-indole-7-sulfonyl)phenyl]-3-(pyridin-3-yl)prop-2-enamide] | 8.4 | 13.3 | 
O=C(/C=C/c1cccnc1)Nc1ccc(S(=O)(=O)c2ccc3c(c2)OCO3)cc1 [(2E)-N-[4-(2H-1,3-benzodioxole-5-sulfonyl)phenyl]-3-(pyridin-3-yl)prop-2-enamide] | 9.9 | 100 to 1000 | 
Cn1ncc2cc(S(=O)(=O)c3ccc(NC(=O)/C=C/c4cccnc4)cc3)ccc21 [(2E)-N-[4-(1-methyl-1H-indazole-5-sulfonyl)phenyl]-3-(pyridin-3-yl)prop-2-enamide] | 1.9 | 97.6 | 
CN(C)c1ncc(S(=O)(=O)c2ccc(NC(=O)/C=C/c3cccnc3)cc2)cn1 [(2E)-N-{4-[2-(dimethylamino)pyrimidine-5-sulfonyl]phenyl}-3-(pyridin-3-yl)prop-2-enamide] | 7.9 | 73.1 | 
CS(=O)(=O)c1ccc(S(=O)(=O)c2ccc(NC(=O)/C=C/c3cccnc3)cc2)cc1 [(2E)-N-{4-[(4-methanesulfonylbenzene)sulfonyl]phenyl}-3-(pyridin-3-yl)prop-2-enamide] | 11.4 | 100 to 1000 | 
CCCn1cc(S(=O)(=O)c2ccc(NC(=O)/C=C/c3cccnc3)cc2)cn1 [(2E)-N-[4-(1-propyl-1H-pyrazole-4-sulfonyl)phenyl]-3-(pyridin-3-yl)prop-2-enamide] | 2.6 | 20.8 | 
O=C(/C=C/c1cccnc1)NCc1ccc(S(=O)(=O)N2CC3CCC(C2)O3)cc1 [(2E)-N-[(4-{8-oxa-3-azabicyclo[3.2.1]octane-3-sulfonyl}phenyl)methyl]-3-(pyridin-3-yl)prop-2-enamide] | 3 | 386 | 
COc1ccccc1S(=O)(=O)c1ccc(NC(=O)/C=C/c2cccnc2)cc1 [(2E)-N-{4-[(2-methoxybenzene)sulfonyl]phenyl}-3-(pyridin-3-yl)prop-2-enamide] | 7.7 | 24.1 | 
Cc1ccc(S(=O)(=O)c2ccc(NC(=O)/C=C/c3cccnc3)cc2)cc1F [(2E)-N-{4-[(3-fluoro-4-methylbenzene)sulfonyl]phenyl}-3-(pyridin-3-yl)prop-2-enamide] | 27.6 | 196 | 
O=C(/C=C/c1cccnc1)Nc1ccc(S(=O)(=O)c2ccc(-c3ccccc3)cc2)cc1 [(2E)-N-{4-[(4-phenylbenzene)sulfonyl]phenyl}-3-(pyridin-3-yl)prop-2-enamide] | 4.5 | 100 to 1000 | 
CCc1cccc(S(=O)(=O)c2ccc(NC(=O)/C=C/c3cccnc3)cc2)c1 [(2E)-N-{4-[(3-ethylbenzene)sulfonyl]phenyl}-3-(pyridin-3-yl)prop-2-enamide] | 3.3 | 30.5 | 
O=C(/C=C/c1cccnc1)Nc1ccc(S(=O)(=O)c2cccnc2)cc1 [(2E)-3-(pyridin-3-yl)-N-[4-(pyridine-3-sulfonyl)phenyl]prop-2-enamide] | 18.3 | 100 to 1000 | 
COc1cc(C(F)(F)F)ccc1S(=O)(=O)c1ccc(NC(=O)/C=C/c2cccnc2)cc1 [(2E)-N-(4-{[2-methoxy-4-(trifluoromethyl)benzene]sulfonyl}phenyl)-3-(pyridin-3-yl)prop-2-enamide] | 59.6 | 118 | 
O=C(/C=C/c1cccnc1)Nc1ccc(S(=O)(=O)c2cc(Cl)cc(Cl)c2)cc1 [(2E)-N-{4-[(3,5-dichlorobenzene)sulfonyl]phenyl}-3-(pyridin-] [(2E)-N-{4-[(3,5-dichlorobenzene)sulfonyl]phenyl}-3-(pyridin-3-yl)prop-2-enamide] | 50.5 |  | 186
COc1ccc(S(=O)(=O)c2ccc(NC(=O)/C=C/c3cccnc3)cc2)cc1OC [(2E)-N-{4-[(3,4-dimethoxybenzene)sulfonyl]phenyl}-3-(pyridin-3-yl)prop-2-enamide] | 2.5 | 43.6 | 
Cc1ccc(F)cc1S(=O)(=O)c1ccc(NC(=O)/C=C/c2cccnc2)cc1 [(2E)-N-{4-[(5-fluoro-2-methylbenzene)sulfonyl]phenyl}-3-(pyridin-3-yl)prop-2-enamide] | 7.4 | 90.1 | 
O=C(/C=C/c1cccnc1)Nc1ccc(S(=O)(=O)c2ccc(Cl)c(C(F)(F)F)c2)cc1 [(2E)-N-(4-{[4-chloro-3-(trifluoromethyl)benzene]sulfonyl}phenyl)-3-(pyridin-3-yl)prop-2-enamide] | 18.4 | 122 | 
O=C(/C=C/c1cccnc1)Nc1ccc(S(=O)(=O)c2cc(F)cc(Cl)c2)cc1 [(2E)-N-{4-[(3-chloro-5-fluorobenzene)sulfonyl]phenyl}-3-(pyridin-3-yl)prop-2-enamide] | 124 | 179 | 
O=C(/C=C/c1cccnc1)Nc1ccc(S(=O)(=O)c2cc(Cl)ccc2Cl)cc1 [(2E)-N-{4-[(2,5-dichlorobenzene)sulfonyl]phenyl}-3-(pyridin-3-yl)prop-2-enamide] | 22.4 | 100 to 1000 | 
CC(C)COc1cc(F)cc(S(=O)(=O)c2ccc(NC(=O)/C=C/c3cccnc3)cc2)c1 [(2E)-N-(4-{[3-fluoro-5-(2-methylpropoxy)benzene]sulfonyl}phenyl)-3-(pyridin-3-yl)prop-2-enamide] | 35.4 | 61.3 | 
O=C(/C=C/c1cccnc1)Nc1ccc(S(=O)(=O)c2cnc3ccccc3c2)cc1 [(2E)-3-(pyridin-3-yl)-N-[4-(quinoline-3-sulfonyl)phenyl]prop-2-enamide] | 3.7 | 100 | 
CS(=O)(=O)c1cccc(S(=O)(=O)c2ccc(NC(=O)/C=C/c3cccnc3)cc2)c1 [(2E)-N-{4-[(3-methanesulfonylbenzene)sulfonyl]phenyl}-3-(pyridin-3-yl)prop-2-enamide] | 14.3 | 100 to 1000 | 
O=C(/C=C/c1cccnc1)Nc1ccc(S(=O)(=O)c2cccc3cccnc23)cc1 [(2E)-3-(pyridin-3-yl)-N-[4-(quinoline-8-sulfonyl)phenyl]prop-2-enamide] | 3.6 | 12.2 | 
O=C(/C=C/c1cccnc1)Nc1ccc(S(=O)(=O)c2cccc(F)c2)cc1 [(2E)-N-{4-[(3-fluorobenzene)sulfonyl]phenyl}-3-(pyridin-3-yl)prop-2-enamide] | 66.4 | 103 | 

From patent US9169209B2, “Compounds and compositions for the inhibition of NAMPT” (FORMA TM, LLC, priority 2011, dated 2015)
